PubChem BioAssay AID2060507 (Molecular Pharmacology Branch, DTP, NCI, 2025)

Test system: 519858-162-T-J1-PDC complex spheroid viability
Assay: Anticancer human tumor 519858-162-T-J1-PDC patient-derived colon adenocarcinoma cell line growth inhibition [GQUAD]
Settings: for IC50: curve of first compound; for viability, T/C: stronger effect = lower value
Outline: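 Viability of tumor cells grown as complex spheroids with endothelial and stromal cells, exposed to drug combinations. Top concentration at or near clinical Cmax (else 10 microM), diluted in half-log increments.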
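Note: spheroids exposed to compounds for 7 days.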
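Throughout, for viability, T/C: 100% = DMSO vehicle control viability.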

## C#Cc1c(F)ccc2cc(O)cc(-c3ncc4c(N5CC6CCC(C5)N6)nc(OCC56CCCN5CC(F)C6)nc4c3F)c12 (configuration not stated) + CN(C)c1ccc(Nc2c3ccc(NC(=O)CCN4CCCC4)cc3nc3cc(NC(=O)CCN4CCCC4)ccc23)cc1
Second compound 0.0316 µM
  IC50: > 10 µM
Second compound 0.1 µM
  IC50: > 10 µM
Second compound 0.316 µM
  IC50: > 10 µM
Second compound 1 µM
  IC50: > 10 µM
Second compound 3.16 µM
  IC50: > 10 µM
Second compound 10 µM
  IC50: > 10 µM
Second compound 0.0316 µM, first compound 0.0316 µM
  viability, T/C: 117%
Second compound 0.0316 µM, first compound 0.1 µM
  viability, T/C: 100%
Second compound 0.0316 µM, first compound 0.316 µM
  viability, T/C: 99.8%
Second compound 0.0316 µM, first compound 1 µM
  viability, T/C: 70.8%
Second compound 0.0316 µM, first compound 3.16 µM
  viability, T/C: 72%
Second compound 0.0316 µM, first compound 10 µM
  viability, T/C: 99.5%
Second compound 0.1 µM, first compound 0.0316 µM
  viability, T/C: 86.2%
Second compound 0.1 µM, first compound 0.1 µM
  viability, T/C: 85.3%
Second compound 0.1 µM, first compound 0.316 µM
  viability, T/C: 89.4%
Second compound 0.1 µM, first compound 1 µM
  viability, T/C: 93.2%
Second compound 0.1 µM, first compound 3.16 µM
  viability, T/C: 70.2%
Second compound 0.1 µM, first compound 10 µM
  viability, T/C: 62.7%
Second compound 0.316 µM, first compound 0.0316 µM
  viability, T/C: 134%
Second compound 0.316 µM, first compound 0.1 µM
  viability, T/C: 87.8%
Second compound 0.316 µM, first compound 0.316 µM
  viability, T/C: 93.1%
Second compound 0.316 µM, first compound 1 µM
  viability, T/C: 77.3%
Second compound 0.316 µM, first compound 3.16 µM
  viability, T/C: 82.1%
Second compound 0.316 µM, first compound 10 µM
  viability, T/C: 77.6%
Second compound 1 µM, first compound 0.0316 µM
  viability, T/C: 112%
Second compound 1 µM, first compound 0.1 µM
  viability, T/C: 97.4%
Second compound 1 µM, first compound 0.316 µM
  viability, T/C: 78.1%
Second compound 1 µM, first compound 1 µM
  viability, T/C: 66.2%
Second compound 1 µM, first compound 3.16 µM
  viability, T/C: 91.7%
Second compound 1 µM, first compound 10 µM
  viability, T/C: 62%
Second compound 3.16 µM, first compound 0.0316 µM
  viability, T/C: 92%
Second compound 3.16 µM, first compound 0.1 µM
  viability, T/C: 85.5%
Second compound 3.16 µM, first compound 0.316 µM
  viability, T/C: 118%
Second compound 3.16 µM, first compound 1 µM
  viability, T/C: 74.5%
Second compound 3.16 µM, first compound 3.16 µM
  viability, T/C: 72.9%
Second compound 3.16 µM, first compound 10 µM
  viability, T/C: 62.9%
Second compound 10 µM, first compound 0.0316 µM
  viability, T/C: 66.9%
Second compound 10 µM, first compound 0.1 µM
  viability, T/C: 55%
Second compound 10 µM, first compound 0.316 µM
  viability, T/C: 77.8%
Second compound 10 µM, first compound 1 µM
  viability, T/C: 48.9%
Second compound 10 µM, first compound 3.16 µM
  viability, T/C: 89.3%
Second compound 10 µM, first compound 10 µM
  viability, T/C: 55.6%
